For this assay, the system named is VEGF. The assay is described as follows: Hypoxia-inducible endogenous VEGF expression, VEGF ELISA assay. The class given is cell-based. As to conditions: HeLa cells, hypoxic conditions (1% O2, 5% CO2), VEGF in conditioned media. As for the experimental part:
The ability of the compounds of the invention to modulate hypoxia-inducible endogenous VEGF expression may be analyzed as follows. VEGF protein levels may be monitored by an ELISA assay (R&D Systems). Briefly, HeLa cells may be cultured for 24-48 hours under hypoxic conditions (1% O2, 5% CO2, balanced with nitrogen) in the presence or absence of a compound of the invention. The conditioned media may then be assayed by ELISA, and the concentration of VEGF calculated from the standard ELISA curve of each assay.
A dose-response analysis may be performed using the ELISA assay and conditions described above. The conditions for the dose-response ELISA are analogous to those described above. A series of, e.g., seven different concentrations may be analyzed. In parallel, a dose-response cytotoxicity assay may be performed using CellTiter Glo (Promega) under the same conditions as the ELISA to ensure that the inhibition of VEGF expression was not due to the cytotoxicity. Dose-response curves may be plotted using percentage inhibition versus concentration of the compound, and EC50 and CC50 values may be generated for each compound with the maximal inhibition set as 100% and the minimal inhibition as 0%.
In general terms: In an ELISA, binding on a coated surface is turned into a signal by an enzyme label.

From US8940896B2, “Tetra-cyclic carboline derivatives useful in the inhibition of angiogenesis” (PTC Therapeutics, Inc., priority 2004, dated 2015) come the findings set out here.

Under “Homo sapiens, HeLa”, `CN1C(=O)C2Cc3c([nH]c4ccccc34)C(c3ccc(F)cc3)N2C1=S` (stereo not shown) [Compound 63] showed an EC50 above 1000 nM.
Compound `O=C1C2Cc3c([nH]c4ccc(Br)cc34)C(c3ccc4c(c3)OCO4)N2C(=O)N1C1CCCCC1` (stereo not shown) [Compound 29] gave an EC50 (Homo sapiens, HeLa) of 8 to 40 nM.
On the same count and under the same terms, the same measure for `COc1ccc(C2c3[nH]c4ccc(Br)cc4c3CC3C(=O)N(c4ccccc4F)C(=S)N32)cc1` (stereo not shown) [Compound 166]: 8 to 40 nM.
Turning to `O=C1C2Cc3c([nH]c4ccc(Br)cc34)C(c3ccc(OCCCn4ccnc4)cc3)N2C(=S)N1c1ccc(Cl)cc1` (stereo not shown) [Compound 199], the EC50 (Homo sapiens, HeLa) is below 8 nM.
As for `O=C1C2Cc3c([nH]c4ccc(Br)cc34)C(c3ccc(OCCCN4CCCC4)cc3)N2C(=S)N1c1ccc(Cl)cc1` (stereo not shown) [Compound 189], the EC50 (Homo sapiens, HeLa) lay in the range of 8 to 40 nM.
Same read-out and setting: the value for `CC(C)N1C(=O)C2Cc3c([nH]c4ccc(Cl)cc34)C(c3ccc(N4CCN(C)CC4)cc3)N2C1=S` (stereo not shown) [Compound 133] was 40 to 200 nM; that for `O=C1C2Cc3c([nH]c4ccccc34)C(c3cccc(Cl)c3)N2C(=S)N1CCc1ccccc1` (stereo not shown) [Compound 38] was above 1000 nM.
Still for that read-out and setting: the same measure for `COc1ccc(C2c3[nH]c4ccc(Br)cc4c3CC3C(=O)N(c4cccc(OC(C)=O)c4)C(=S)N32)cc1` (stereo not shown) [Compound 182]: below 8 nM; for `CC(C)N1C(=O)C2Cc3c([nH]c4ccc(Br)cc34)C(c3ccc(N4CCOCC4)cc3)N2C1=O` (stereo not shown) [Compound 118]: 40 to 200 nM.
Under “Homo sapiens, HeLa”, `O=C1C2Cc3c([nH]c4ccc(Br)cc34)C(C3CCCCC3)N2C(=S)N1C1CCCCC1` (stereo not shown) [Compound 30] gave an EC50 of 40 to 200 nM.
The compound `COC(=O)N1C(=O)C2Cc3c([nH]c4ccc(Br)cc34)C(c3ccc(OC)cc3)N2C1=S` (stereo not shown) [Compound 147] yielded an EC50 (Homo sapiens, HeLa) of 40 to 200 nM.
Regarding `O=C1C2Cc3c([nH]c4ccccc34)C(c3cccc(Cl)c3)N2C(=S)N1C1CCCCC1` (stereo not shown) [Compound 36], the EC50 (Homo sapiens, HeLa) is above 1000 nM.
Still for that read-out and setting: the value for `CCN1C(=O)C2Cc3c([nH]c4ccc(Br)cc34)C(c3ccc(OCCN4CCOCC4)cc3)N2C1=S` (stereo not shown) [Compound 101] was below 8 nM.
With `COc1ccc(C2c3[nH]c4ccc(Br)cc4c3CC3C(=O)N(c4ccccc4Cl)C(=S)N32)cc1` (stereo not shown) [Compound 164], where the note is “Homo sapiens, HeLa”, the EC50 lay within 40 to 200 nM.
As for `CN1CCN(CCCOc2ccc(C3c4[nH]c5ccc(Br)cc5c4CC4C(=O)N(c5ccc(Cl)cc5)C(=S)N43)cc2)CC1` (stereo not shown) [Compound 198], where the note is “Homo sapiens, HeLa”, the concentration giving a half-maximal response (EC50) is below 8 nM.
On the same count and under the same terms, the same measure for `COc1ccc(C2c3[nH]c4ccccc4c3CC3C(=O)N(C(C)C)C(=S)N32)cc1` (stereo not shown) [Compound 42]: 200 to 1000 nM; for `CC(C)NCCCOc1ccc(C2c3[nH]c4ccc(Br)cc4c3CC3C(=O)N(c4ccc(Cl)cc4)C(=S)N32)cc1` (stereo not shown) [Compound 194]: 8 to 40 nM; for `CC(C)N1C(=O)C2Cc3c([nH]c4ccc(Br)cc34)C(c3ccc(-n4ccnc4)cc3)N2C1=S` (stereo not shown) [Compound 128]: 8 to 40 nM.
The compound `CC(C)N1C(=O)C2Cc3c([nH]c4ccc(Cl)cc34)C(c3ccc(-n4ccnc4)cc3)N2C1=O` (stereo not shown) [Compound 123] had an EC50 (Homo sapiens, HeLa) of 200 to 1000 nM.
Still for that read-out and setting: the same measure for `COCCCN1C(=O)C2Cc3c([nH]c4ccc(Br)cc34)C(c3ccc(OCCN4CCOCC4)cc3)N2C1=S` (stereo not shown) [Compound 105]: 8 to 40 nM; for `COc1ccc(C2c3[nH]c4ccc(OC)cc4c3CC3C(=O)N(C4CCCCC4)C(=O)N32)cc1` (stereo not shown) [Compound 24]: 40 to 200 nM.
`COc1ccc(C2c3[nH]c4ccc(Br)cc4c3CC3C(=O)N(c4ccc(OC(C)=O)cc4)C(=S)N32)cc1` (stereo not shown) [Compound 141]: the EC50 (Homo sapiens, HeLa) is below 8 nM.
On the same count and under the same terms, the value for `O=C1C2Cc3c([nH]c4ccc(Br)cc34)C(c3ccc(F)cc3)N2C(=S)N1C1CCCCC1` (stereo not shown) [Compound 10] was 8 to 40 nM.
`COc1cccc(C2c3[nH]c4ccc(Br)cc4c3CC3C(=O)N(C4CC4)C(=S)N32)c1` (stereo not shown) [Compound 16] gave an EC50 below 8 nM.
Turning to `O=C1C2Cc3c([nH]c4ccc(Br)cc34)C(c3ccc(OCCCCl)cc3)N2C(=S)N1c1ccc(Cl)cc1` (stereo not shown) [Compound 188], for the setting “Homo sapiens, HeLa”, the EC50 was below 8 nM.
On to `O=C1C2Cc3c([nH]c4ccccc34)C(c3ccc4c(c3)OCO4)N2C(=S)N1C1CCCCC1` (stereo not shown) [Compound 3], for which, where the note is “Homo sapiens, HeLa”, the EC50 is above 1000 nM.
The same measure, in the same setting: the value for `O=C1C2Cc3c([nH]c4ccccc34)C(c3ccccc3)N2C(=S)N1C1CCCCC1` (stereo not shown) [Compound 56] was above 1000 nM; that for `O=C1C2Cc3c([nH]c4ccccc34)C(C3CCCCC3)N2C(=S)N1C1CCCC1` (stereo not shown) [Compound 11] was 200 to 1000 nM; that for `CCOC(=O)C(C)N1C(=O)C2Cc3c([nH]c4ccc(Br)cc34)C(c3ccc(OC)cc3)N2C1=S` (stereo not shown) [Compound 144] was 8 to 40 nM.
Same read-out and setting: the value for `CC(C)NCCCOc1ccc(C2c3[nH]c4ccc(Br)cc4c3CC3C(=O)N(C(C)C)C(=S)N32)cc1` (stereo not shown) [Compound 155] was below 8 nM; that for `CC(C)N1C(=O)C2Cc3c([nH]c4ccc(Br)cc34)C(c3ccc(-c4ccncc4)cc3)N2C1=O` (stereo not shown) [Compound 120] was 200 to 1000 nM.
With `CC(C)N1C(=O)C2Cc3c([nH]c4ccc(Cl)cc34)C(c3ccc(N4CCOCC4)cc3)N2C1=O` (stereo not shown) [Compound 122], the EC50 (Homo sapiens, HeLa) lay in the range of 200 to 1000 nM.
On to `COc1ccc(C2c3[nH]c4ccc(Br)cc4c3CC3C(=O)N(c4cccc(F)c4)C(=S)N32)cc1` (stereo not shown) [Compound 167], for which the EC50 (Homo sapiens, HeLa) is below 8 nM.
The same measure, in the same setting: the value for `O=C1C2Cc3c([nH]c4ccc(Br)cc34)C(c3ccc(OCCCN4CCOCC4)cc3)N2C(=S)N1c1ccc(Cl)cc1` (stereo not shown) [Compound 192] was below 8 nM; that for `COc1ccc(C2c3[nH]c4ccccc4c3CC3C(=O)N(c4ccccc4)C(=O)N32)cc1` (stereo not shown) [Compound 50] was above 1000 nM.
On the same count and under the same terms, the value for `O=C1C2Cc3c([nH]c4ccccc34)C(c3ccc4c(c3)OCO4)N2C(=S)N1C1CCCC1` (stereo not shown) [Compound 14] was 200 to 1000 nM.
Where the note is “Homo sapiens, HeLa”, `COCCOc1ccc(C2c3[nH]c4ccc(Cl)cc4c3CC3C(=O)N(C(C)C)C(=S)N32)cc1` (stereo not shown) [Compound 108] returned an EC50 of 8 to 40 nM.
Same read-out and setting: the value for `COc1ccccc1C1c2[nH]c3ccccc3c2CC2C(=O)N(c3ccccc3)C(=S)N21` (stereo not shown) [Compound 88] was above 1000 nM; that for `O=C1C2Cc3c([nH]c4ccc(Br)cc34)C(c3ccc4c(c3)OCO4)N2C(=S)N1C1CCCC1` (stereo not shown) [Compound 22] was below 8 nM.
The same measure, in the same setting: the same measure for `COc1ccc(C2c3[nH]c4ccccc4c3CC3C(=O)N(c4ccc(C(C)C)cc4)C(=O)N32)cc1` (stereo not shown) [Compound 35]: 200 to 1000 nM; for `CCN1C(=O)C2Cc3c([nH]c4ccc(C)cc34)C(c3ccc(OC)cc3)N2C1=O` (stereo not shown) [Compound 33]: 40 to 200 nM.
Where the note is “Homo sapiens, HeLa”, `COc1ccc(C2c3[nH]c4ccc(Br)cc4c3CC3C(=O)N(c4ccc(F)cc4Cl)C(=S)N32)cc1` (stereo not shown) [Compound 174] gave an EC50 of 40 to 200 nM.
Turning to `COc1ccc(C2c3[nH]c4ccccc4c3CC3C(=O)N(c4ccc(OC)cc4C)C(=S)N32)cc1` (stereo not shown) [Compound 78], the EC50 (Homo sapiens, HeLa) was above 1000 nM.
The compound `COc1ccc(C2c3[nH]c4ccc(Br)cc4c3CC3C(=O)N(Cc4ccc(Cl)cc4)C(=S)N32)cc1` (stereo not shown) [Compound 201] showed an EC50 (Homo sapiens, HeLa) below 8 nM.
Same read-out and setting: the same measure for `CC(C)N1C(=O)C2Cc3c([nH]c4ccc(Br)cc34)C(c3ccc(OCCCN4CCN(C)CC4)cc3)N2C1=S` (stereo not shown) [Compound 159]: below 8 nM; for `O=C1C2Cc3c([nH]c4ccccc34)C(c3cccc(Cl)c3)N2C(=S)N1c1cccc(F)c1` (stereo not shown) [Compound 39]: 200 to 1000 nM; for `CCN1C(=O)C2Cc3c([nH]c4ccccc34)C(c3cc(OC)c(OC)c(OC)c3)N2C1=S` (stereo not shown) [Compound 64]: above 1000 nM.
On the same count and under the same terms, the value for `COc1ccc(C2c3[nH]c4ccc(Br)cc4c3CC3C(=O)N(CCc4ccccc4)C(=S)N32)cc1` (stereo not shown) [Compound 181] was below 8 nM; that for `COCCN(CCCOc1ccc(C2c3[nH]c4ccc(Br)cc4c3CC3C(=O)N(C(C)C)C(=S)N32)cc1)CCOC` (stereo not shown) [Compound 156] was 8 to 40 nM.
Where the note is “Homo sapiens, HeLa”, `CC(C)N1C(=O)C2Cc3c([nH]c4ccc(Br)cc34)C(c3ccc(OCCN4CCOCC4)cc3)N2C1=S` (stereo not shown) [Compound 103] returned an EC50 below 8 nM.
Same read-out and setting: the same measure for `CC(C)N1C(=O)C2Cc3c([nH]c4ccc(Cl)cc34)C(c3ccc(-c4cncnc4)cc3)N2C1=O` (stereo not shown) [Compound 126]: 200 to 1000 nM; for `CC(C)N1C(=O)C2Cc3c([nH]c4ccc(Br)cc34)C(c3ccc(-c4cncnc4)cc3)N2C1=S` (stereo not shown) [Compound 131]: 8 to 40 nM.
The same measure, in the same setting: the value for `COc1ccc(C2c3[nH]c4ccc(C)cc4c3CC3C(=O)N(C4CCCCC4)C(=O)N32)cc1` (stereo not shown) [Compound 45] was 200 to 1000 nM.
In turn, `COc1ccccc1C1c2[nH]c3ccccc3c2CC2C(=O)N(c3cccc(C)c3)C(=S)N21` (stereo not shown) [Compound 90] yielded an EC50 (Homo sapiens, HeLa) above 1000 nM.
In the case of `O=C1C2Cc3c([nH]c4ccc(Br)cc34)C(c3ccc(OCCN4CCCCC4)cc3)N2C(=S)N1C1CCCCC1` (stereo not shown) [Compound 26], the EC50 (Homo sapiens, HeLa) lay within 40 to 200 nM.
The same measure, in the same setting: the value for `COc1cccc(C2c3[nH]c4ccccc4c3CC3C(=O)N(C4CC4)C(=S)N32)c1` (stereo not shown) [Compound 6] was above 1000 nM; that for `COc1ccccc1C1c2[nH]c3ccccc3c2CC2C(=O)N(Cc3ccccc3)C(=S)N21` (stereo not shown) [Compound 93] was above 1000 nM; that for `COc1ccc(C2c3[nH]c4ccc(Br)cc4c3CC3C(=O)N(c4cccc(C(F)(F)F)c4)C(=S)N32)cc1` (stereo not shown) [Compound 162] was below 8 nM.
On the same count and under the same terms, the value for `COc1ccc(C2c3[nH]c4ccccc4c3CC3C(=O)N(C(C)(C)C)C(=S)N32)cc1` (stereo not shown) [Compound 70] was above 1000 nM; that for `COc1ccc(C2c3[nH]c4ccccc4c3CC3C(=O)N(C4CCCCC4)C(=O)N32)cc1` (stereo not shown) [Compound 48] was above 1000 nM.
Compound `COc1ccccc1C1c2[nH]c3ccccc3c2CC2C(=O)N(c3ccccc3C)C(=S)N21` (stereo not shown) [Compound 89] yielded an EC50 (Homo sapiens, HeLa) above 1000 nM.

One may read the EC50 as the midpoint of the concentration-response curve.
